The text below walks through data of the NIST ThermoML archive (doi:10.1016/j.tca.2013.05.015).

Molecules are shown by their SMILES. Numbers after ± are expanded uncertainties.

For this data set the following is noted: 101.33 kPa, Liquid; for speed of sound: Sing-around technique in a fixed-path interferometer; for mass density: Vibrating tube method.

A word on the speed of sound: it is how fast a sound wave travels through the sample. In general, mass density refers to the mass of a sample divided by its volume. On to `CCO` [ethanol], for which the speed of sound runs as follows: (298.15 K) 1149 ± 10 m/s; (303.15 K) 1128 ± 10 m/s; (308.15 K) 1098 ± 10 m/s; (313.15 K) 1086 ± 10 m/s. Moreover, the mass density by setting is: (298.15 K) 785.7 ± 2 kg/m3; (303.15 K) 782 ± 2 kg/m3; (308.15 K) 777.7 ± 2 kg/m3; (313.15 K) 773.6 ± 2 kg/m3.

Take `CCOC(C)=O` [ethyl acetate]: the speed of sound (298.15 K) turned out to be 1141 ± 10 m/s, the speed of sound (303.15 K) is reported as 1118 ± 10 m/s, the speed of sound (308.15 K) was found to be 1096 ± 10 m/s and the speed of sound (313.15 K) was determined as 1073 ± 10 m/s. Further, the mass density reads like this: (298.15 K) 894.4 ± 2 kg/m3; (303.15 K) 888.5 ± 2 kg/m3; (308.15 K) 882.7 ± 2 kg/m3; (313.15 K) 876.3 ± 2 kg/m3.
